Reference: PubChem BioAssay AID1918954 (Molecular Pharmacology Branch, DTP, NCI, 2023)

System: MDA-MB-468 complex spheroids with HUVEC/MSC, viability
Test: Anticancer human tumor MDA-MB-468 cell line growth inhibition;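 further: spheroids exposed to agents for seven days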;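 on viability, T/C: 100% = DMSO vehicle control viability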
Conditions: for IC50: curve of first compound; for viability, T/C: stronger effect = lower value
Summary of the method: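 Drug combinations with the LSD1 inhibitor iadademstat tested on tumor cells co-cultured as spheroids with endothelial cells and mesenchymal stem cells. Concentrations descended in half-log increments from clinical Cmax or 10 microM.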

[1] = second compound 0.1 µM, first compound 0.000316 µM
[2] = second compound 0.1 µM, first compound 0.001 µM
[3] = second compound 0.1 µM, first compound 0.00316 µM
[4] = second compound 0.1 µM, first compound 0.01 µM
[5] = second compound 0.1 µM, first compound 0.0316 µM
[6] = second compound 0.1 µM, first compound 0.1 µM
[7] = second compound 0.316 µM, first compound 0.000316 µM
[8] = second compound 0.316 µM, first compound 0.001 µM
[9] = second compound 0.316 µM, first compound 0.00316 µM
[10] = second compound 0.316 µM, first compound 0.01 µM
[11] = second compound 0.316 µM, first compound 0.0316 µM
[12] = second compound 0.316 µM, first compound 0.1 µM
[13] = second compound 1 µM, first compound 0.000316 µM
[14] = second compound 1 µM, first compound 0.001 µM
[15] = second compound 1 µM, first compound 0.00316 µM
[16] = second compound 1 µM, first compound 0.01 µM
[17] = second compound 1 µM, first compound 0.0316 µM
[18] = second compound 1 µM, first compound 0.1 µM
[19] = second compound 3.16 µM, first compound 0.000316 µM
[20] = second compound 3.16 µM, first compound 0.001 µM
[21] = second compound 3.16 µM, first compound 0.00316 µM
[22] = second compound 3.16 µM, first compound 0.01 µM
[23] = second compound 3.16 µM, first compound 0.0316 µM
[24] = second compound 3.16 µM, first compound 0.1 µM
[25] = second compound 10 µM, first compound 0.000316 µM
[26] = second compound 10 µM, first compound 0.001 µM
[27] = second compound 10 µM, first compound 0.00316 µM
[28] = second compound 10 µM, first compound 0.01 µM
[29] = second compound 10 µM, first compound 0.0316 µM
[30] = second compound 10 µM, first compound 0.1 µM

CC(C)CC(NC(=O)C(Cc1ccccc1)NC(=O)c1cnccn1)B(O)O (stereo not given) + NC1CCC(NC2CC2c2ccccc2)CC1
IC50 (second compound 0.1 µM): 0.699 nM
IC50 (second compound 0.316 µM): 0.592 nM
IC50 (second compound 1 µM): 0.642 nM
IC50 (second compound 3.16 µM): 0.646 nM
IC50 (second compound 10 µM): 0.562 nM
viability, T/C [1]: 102%
viability, T/C [2]: 26.4%
viability, T/C [3]: 1.52%
viability, T/C [4]: 0.94%
viability, T/C [5]: 1.06%
viability, T/C [6]: 1.23%
viability, T/C [7]: 86.6%
viability, T/C [8]: 19.5%
viability, T/C [9]: 0.94%
viability, T/C [10]: 1.12%
viability, T/C [11]: 1%
viability, T/C [12]: 0.68%
viability, T/C [13]: 94.1%
viability, T/C [14]: 22.2%
viability, T/C [15]: 0.63%
viability, T/C [16]: 1.08%
viability, T/C [17]: 1.55%
viability, T/C [18]: 0.88%
viability, T/C [19]: 91.9%
viability, T/C [20]: 24.5%
viability, T/C [21]: 1.11%
viability, T/C [22]: 1%
viability, T/C [23]: 0.77%
viability, T/C [24]: 1.37%
viability, T/C [25]: 83.9%
viability, T/C [26]: 16.1%
viability, T/C [27]: 1.08%
viability, T/C [28]: 0.25%
viability, T/C [29]: 1.63%
viability, T/C [30]: 2.35%

CC(C)CC(NC(=O)CNC(=O)c1cc(Cl)ccc1Cl)B1OC(=O)CC(CC(=O)O)(C(=O)O)O1 (stereo not given) + NC1CCC(NC2CC2c2ccccc2)CC1
IC50 (second compound 0.1 µM): 3.9 nM
IC50 (second compound 0.316 µM): 3.97 nM
IC50 (second compound 1 µM): 3.33 nM
IC50 (second compound 3.16 µM): 4.4 nM
IC50 (second compound 10 µM): 2.99 nM
viability, T/C [1]: 110%
viability, T/C [2]: 115%
viability, T/C [3]: 59.5%
viability, T/C [4]: 8.34%
viability, T/C [5]: 1.37%
viability, T/C [6]: 1.7%
viability, T/C [7]: 98.6%
viability, T/C [8]: 99.2%
viability, T/C [9]: 60.4%
viability, T/C [10]: 7.32%
viability, T/C [11]: 2.63%
viability, T/C [12]: 1.14%
viability, T/C [13]: 89.9%
viability, T/C [14]: 118%
viability, T/C [15]: 52.1%
viability, T/C [16]: 9.33%
viability, T/C [17]: 1.32%
viability, T/C [18]: 1.76%
viability, T/C [19]: 72.7%
viability, T/C [20]: 101%
viability, T/C [21]: 67%
viability, T/C [22]: 7.42%
viability, T/C [23]: 1.53%
viability, T/C [24]: 1.59%
viability, T/C [25]: 80.6%
viability, T/C [26]: 65.4%
viability, T/C [27]: 50.3%
viability, T/C [28]: 4.74%
viability, T/C [29]: 2.13%
viability, T/C [30]: 2.15%

Nc1ccccc1NC(=O)c1ccc(CNC(=O)OCc2cccnc2)cc1 + NC1CCC(NC2CC2c2ccccc2)CC1
IC50 (second compound 0.1 µM): 170 nM
IC50 (second compound 0.316 µM): 140 nM
IC50 (second compound 1 µM): 127 nM
IC50 (second compound 3.16 µM): 143 nM
IC50 (second compound 10 µM): 111 nM
viability, T/C (second compound 0.1 µM, first compound 0.00949 µM): 97.4%
viability, T/C (second compound 0.1 µM, first compound 0.03 µM): 106%
viability, T/C (second compound 0.1 µM, first compound 0.0949 µM): 87.2%
viability, T/C (second compound 0.1 µM, first compound 0.3 µM): 13.9%
viability, T/C (second compound 0.1 µM, first compound 0.949 µM): 3.13%
viability, T/C (second compound 0.1 µM, first compound 3 µM): 1.48%
viability, T/C (second compound 0.316 µM, first compound 0.00949 µM): 102%
viability, T/C (second compound 0.316 µM, first compound 0.03 µM): 103%
viability, T/C (second compound 0.316 µM, first compound 0.0949 µM): 67.7%
viability, T/C (second compound 0.316 µM, first compound 0.3 µM): 14.6%
viability, T/C (second compound 0.316 µM, first compound 0.949 µM): 3.32%
viability, T/C (second compound 0.316 µM, first compound 3 µM): 0.9%
viability, T/C (second compound 1 µM, first compound 0.00949 µM): 89.1%
viability, T/C (second compound 1 µM, first compound 0.03 µM): 90.3%
viability, T/C (second compound 1 µM, first compound 0.0949 µM): 61.2%
viability, T/C (second compound 1 µM, first compound 0.3 µM): 15.9%
viability, T/C (second compound 1 µM, first compound 0.949 µM): 2.93%
viability, T/C (second compound 1 µM, first compound 3 µM): 1.42%
viability, T/C (second compound 3.16 µM, first compound 0.00949 µM): 80.8%
viability, T/C (second compound 3.16 µM, first compound 0.03 µM): 83.7%
viability, T/C (second compound 3.16 µM, first compound 0.0949 µM): 69.6%
viability, T/C (second compound 3.16 µM, first compound 0.3 µM): 14.9%
viability, T/C (second compound 3.16 µM, first compound 0.949 µM): 3.07%
viability, T/C (second compound 3.16 µM, first compound 3 µM): 1.04%
viability, T/C (second compound 10 µM, first compound 0.00949 µM): 59.9%
viability, T/C (second compound 10 µM, first compound 0.03 µM): 61%
viability, T/C (second compound 10 µM, first compound 0.0949 µM): 56%
viability, T/C (second compound 10 µM, first compound 0.3 µM): 13.4%
viability, T/C (second compound 10 µM, first compound 0.949 µM): 3.05%
viability, T/C (second compound 10 µM, first compound 3 µM): 1.52%

O=C(c1cc(Cc2n[nH]c(=O)c3ccccc23)ccc1F)N1CCN(C(=O)C2CC2)CC1 + NC1CCC(NC2CC2c2ccccc2)CC1
IC50 (second compound 0.1 µM): 775 nM
IC50 (second compound 0.316 µM): 812 nM
IC50 (second compound 1 µM): 786 nM
IC50 (second compound 3.16 µM): 909 nM
IC50 (second compound 10 µM): 411 nM
viability, T/C [5]: 89.5%
viability, T/C [6]: 103%
viability, T/C (second compound 0.1 µM, first compound 0.316 µM): 76.2%
viability, T/C (second compound 0.1 µM, first compound 1 µM): 42.6%
viability, T/C (second compound 0.1 µM, first compound 3.16 µM): 19.3%
viability, T/C (second compound 0.1 µM, first compound 10 µM): 13.6%
viability, T/C [11]: 93.8%
viability, T/C [12]: 87.8%
viability, T/C (second compound 0.316 µM, first compound 0.316 µM): 71.4%
viability, T/C (second compound 0.316 µM, first compound 1 µM): 47.7%
viability, T/C (second compound 0.316 µM, first compound 3.16 µM): 18.2%
viability, T/C (second compound 0.316 µM, first compound 10 µM): 13.8%
viability, T/C [17]: 90.2%
viability, T/C [18]: 80.8%
viability, T/C (second compound 1 µM, first compound 0.316 µM): 71.7%
viability, T/C (second compound 1 µM, first compound 1 µM): 45.2%
viability, T/C (second compound 1 µM, first compound 3.16 µM): 21%
viability, T/C (second compound 1 µM, first compound 10 µM): 15.1%
viability, T/C [23]: 68.4%
viability, T/C [24]: 75.3%
viability, T/C (second compound 3.16 µM, first compound 0.316 µM): 77%
viability, T/C (second compound 3.16 µM, first compound 1 µM): 47.9%
viability, T/C (second compound 3.16 µM, first compound 3.16 µM): 20.8%
viability, T/C (second compound 3.16 µM, first compound 10 µM): 17%
viability, T/C [29]: 73.9%
viability, T/C [30]: 65.8%
viability, T/C (second compound 10 µM, first compound 0.316 µM): 53.4%
viability, T/C (second compound 10 µM, first compound 1 µM): 38.9%
viability, T/C (second compound 10 µM, first compound 3.16 µM): 23.6%
viability, T/C (second compound 10 µM, first compound 10 µM): 18.6%
